Data on twelve molecules can be found in patent publication US20210130420A1, “RECOMBINANT BINDING PROTEINS TARGETING HER2 AND SERUM ALBUMIN, AND THEIR USES” (Molecular Partners AG, priority 2016, published 2021).

Like-named read-outs stand apart in the source and are kept apart here.

One data set deals with BT474 cells. Kind of data set: BT474 cell proliferation, BrdU-labeling. It is filed as cell-based, human. The note with it: Homo sapiens, BT-474, read-out: cell proliferation inhibition constant IC50, BT474. The method, then: Protein #21-His and Protein #23-His, were expressed and purified as described in Example 1. Effects of the recombinant binding proteins on BT474 cell proliferation were determined by measuring DNA synthesis using BrdU-labeling (BrdU, Cell Proliferation ELISA, Roche). Briefly, 10000 BT474 cells were seeded per well in a 96 well plate in 100 ul complete medium and incubated for 24 hours. Recombinant binding proteins or controls were added for an additional 72 hours. BrdU for cell labeling was added for the last 24 hours. Labeled (proliferating) cells were detected according to the manufactures protocol. The data were analyzed using the GraphPad prism software, plotting log [c] on the x-axis against OD450-602 nm on the y-axis. Data were fitted using a non-linear regression fit (log(antagonist) vs. response—Variable slope (four parameters)) deriving IC50 values.
Protein #21 and Protein #21-His were expressed and purified as described in Example 1. Standard BrdU cell proliferation assays were performed, well-known to the person skilled in the art. Briefly, effects on cell proliferation of Protein #21-His, other compounds, or Protein #21-His in combination with other compounds, were determined by measuring DNA synthesis using BrdU-labeling (BrdU, Cell Proliferation ELISA, Roche). Briefly, 10000 cells were seeded per well in a 96 well plate in 100 μl complete medium and incubated for 24 hours. Protein #21-His and/or compounds were added for an additional 72 hours. BrdU for cell labeling was added for the last 24 hours. Labeled (proliferating) cells were detected according to the manufactures protocol. The data were analyzed using the Graph Pad prism software (log [c] vs. OD450-602 nm plot). Data were fitted using a non-linear regression fit (log(antagonist) vs. response—variable slope (four parameters)).

The nature of data set [1]: Pharmacokinetic analysis in mouse. It is filed as in vivo. The procedure:
The measurements shown in this example are the result of a half-life engineering effort as described in Example 11. Protein #21-His and Protein #23-His were expressed and purified as described in Example 1. The pharmacokinetic properties of the His-tagged proteins were assessed in mouse as described elsewhere (Zahnd, C., Kawe, M., Stumpp, M. T., de Pasquale, C., Tamaskovic, R., Nagy-Davidescu, G., Dreier, B., Schibli, R., Binz, H. K., Waibel, R., Plückthun, A., Cancer Res. 70, 1595-1605, 2010). […] Having SEQ ID NO: 16 present in the recombinant binding protein thus appears to be more favorable than having SEQ ID NO: 18 present.
Polypeptide linkers that link protein domains are well-known to the person skilled in the art. Gly-Ser-rich linkers are well-known from single-chain Fv antibody fragments, where they have proven to be most appropriate to link the two Fv polypeptide chains. […] Protein #26-His and Protein #27-His, were expressed and purified as described in Example 1. Pharmacokinetic analyses in mouse were performed as described in Example 8.
For the studies in this example Protein #21-His, Protein #24-His, Protein #28-His, Protein #29-His, and Protein #30-His were prepared according to Example 1. Protein #28-His was additionally PEGylated using a 40 kDa PEG moiety (NOF Sunbright GL2-400MA) by maleimid coupling of the PEG-moiety onto the free C-terminal cysteine of Protein #28-His, followed by purification to homogeneity using standard purification methods, procedures well known to the person skilled in the art. Pharmacokinetic analyses in mouse or cynomolgus monkey were performed as described in Examples 8 and 9.

The nature of data set [2]: Storage stability in PBS analysed by SDS-PAGE. The class given is physicochemical. The note with it: for degradation upon prolonged incubation: in PBS at 10 mg/ml at 40° C. The method, then:
“Improved storage stability” in the context of the present invention means the reduction of the amounts of a degradation band, preferably the reduction of the amount of degradation products, as detected by a Coomassie-stained SDS-PAGE occurring after storage at 40° C. for 1 month at 10 mg/ml in PBS, by at least 5%, 10%, 15%, 20%, 25%, 30%, 35%, 40%, 45%, 50%, or 50%. Methods to assess storage stability by SDS-PAGE are well known to the person skilled in the art. Examples of designed ankyrin repeat domains and recombinant binding proteins with improved storage stability properties are given in Examples 2 and 3.
Protein #13-His, Protein #14-His and Protein #15-His were prepared as described in Example 1, and samples were concentrated to 10 mg/ml in PBS. Protein #14-His and Protein #15-His where then stored for 1 month at −80° C. or at 40° C. in glass vials, followed by analysis on SDS 15% PAGE. […] These findings illustrate that Protein #14-His has improved storage stability compared to Proteins #13-His and Protein #15-His.
A storage stability improvement is also observed, when testing the storage stability of Protein #21 and Protein #22 (recombinant binding proteins consisting of the amino acid sequences corresponding to SEQ ID NOs: 21 and 22, respectively). Protein #21 and Protein #22 are prepared as described in Example 1, samples are concentrated to 10 mg/ml in PBS and stored for 1 month at −80° C. in or at 40° C. in glass vials, followed by analysis on standard size-exclusion chromatography.

Where [3] appears, read: compound titrated alone or with Protein #21 at 2 nM.
[4] abbreviates: Protein #21 was titrated, Trametinib (10^−5 M), Cobimetinib (10^−5 M) or Salirasib (3*10^−5 M).

In the case of `Cc1nc(NC(=O)N2CCC[C@H]2C(N)=O)sc1-c1ccnc(C(C)(C)C(F)(F)F)c1` [Alpelisib], the IC50 with BT474 cells (setting [3]) was 2540 nM. With `Cc1c(CN2CCN(C(=O)[C@H](C)O)CC2)sc2c(N3CCOCC3)nc(-c3cnc(N)nc3)nc12` [Apitolisib], in the data set on BT474 cells (setting [3]), the IC50 was 204 nM. Consider `O=C(c1ccc(F)c(F)c1Nc1ccc(I)cc1F)N1CC(O)([C@@H]2CCCCN2)C1` [Cobimetinib], for which, in the data set on BT474 cells (setting [4]), the IC50 is 1.02 nM. As for `CC(=O)c1c(C)c2cnc(Nc3ccc(N4CCNCC4)cn3)nc2n(C2CCCC2)c1=O` [Palbociclib], in the data set on BT474 cells (setting [3]), the IC50 is 2600 nM. In the case of `CC(C)=CCC/C(C)=C/CC/C(C)=C/CSc1ccccc1C(=O)O` [Salirasib], the IC50 in the data set with BT474 cells (setting [4]) was found to be 0.94 nM. For the molecule `Cc1nc(-c2cn3c(n2)-c2ccc(-c4cnn(C(C)(C)C(N)=O)c4)cc2OCC3)n(C(C)C)n1` [Taselisib], the IC50 in the data set with BT474 cells (setting [3]) came to 105 nM.

As for `CC(=O)Nc1cccc(-n2c(=O)n(C3CC3)c(=O)c3c(Nc4ccc(I)cc4F)n(C)c(=O)c(C)c32)c1` [Trametinib], the IC50 in the data set with BT474 cells (setting [4]) turned out to be 1.04 nM.

B1: Protein #26-His: SEQ ID NO: 26 with a His-tag (SEQ ID NO: 1) fused to its N terminus (protein)
chain: MRGSHHHHHHGSDLGKKLLEAARAGQDDEVRILMANGADVNAKDYFSHTPLHLAARNGHLKIVEVLLKAGADVNAKDFAGKTPLHLAANDGHLEIVEVLLKHGADVNAQDIFGKTPADIAADAGHEDIAEVLQKAAGGGGSGGGGSGGGGSGGGGSGSDLGAKLLSDLGVKLLWAAARGQDDEVRILLAAGADVNAKDFQGITPLHIAAQSGHLEIVEVLLKAGADVNAKDVTGDTPLHLAAQHGHLVIVEVLLKAGADVNAQDERGWTPADLAADWGHEDIAEVLQKAAGGGGSGGGGSGSDLGKKLLEAARAGQDDEVRILMANGADVNAKDEYGLTPLYLATAHGHLEIVEVLLKNGADVNAVDAIGFTPLHLAAFIGHLEIAEVLLKHGADVNAQDKFGKTAFDISIGNGNEDLAEILQKAAGGGGSGGGGSGGGGSGGGGSGSDLGKKLLEAARAGQDDEVRILMANGADVNAKDYFSHTPLHLAARNGHLKIVEVLLKAGADVNAKDFAGKTPLHLAANDGHLEIVEVLLKHGADVNAQDIFGKTPADIAADAGHEDIAEVLQKAA
modifications: His-tag; Protein comprising four designed ankyrin repeat domains
Take B1: the “injected dose remaining 48 hours after intravenous injection” value in data set [1] is on record as 5.3%.

B2: Protein #30-His: SEQ ID NO: 30 with a His-tag (SEQ ID NO: 1) fused to its N terminus (protein)
chain: MRGSHHHHHHGSDLGKKLLEAARAGQDDEVRILMANGADVNAKDYFSHTPLHLAARNGHLKIVEVLLKAGADVNAKDFAGKTPLHLAANDGHLEIVEVLLKHGADVNAQDIFGKTPADIAADAGHEDIAEVLQKAAGGGGSGGGGSGGGGSGGGGSGSDLGKKLLEAARAGQDDEVRILMANGADVNAKDYFSHTPLHLAARNGHLKIVEVLLKAGADVNAKDFAGKTPLHLAANDGHLEIVEVLLKHGADVNAQDIFGKTPADIAADAGHEDIAEVLQKAAGGGGSGGGGSGGGGSGGGGSGSDLGAKLLSDLGVKLLWAAARGQDDEVRILLAAGADVNAKDFQGITPLHIAAQSGHLEIVEVLLKAGADVNAKDVTGDTPLHLAAQHGHLVIVEVLLKAGADVNAQDERGWTPADLAADWGHEDIAEVLQKAAGGGGSGGGGSGSDLGKKLLEAARAGQDDEVRILMANGADVNAKDEYGLTPLYLATAHGHLEIVEVLLKNGADVNAVDAIGFTPLHLAAFIGHLEIAEVLLKHGADVNAQDKFGKTAFDISIGNGNEDLAEILQKAA
modifications: His-tag; Protein comprising four designed ankyrin repeat domains
Regarding B2, in data set [1] (Protein #30-His compared to Protein #29-His, FIG. 5B), the “mouse pharmacokinetic profile, two versus one serum albumin binding domain” value is on record as “benefit of having two designed ankyrin repeat domains with binding specificity for serum albumin”.

B3: Protein #12-His: SEQ ID NO: 12 with a His-tag; designed ankyrin repeat domain with binding specificity for serum albumin (WO2012/069654) (protein)
chain: GSDLGKKLLEAARAGQDDEVRILLKAGADVNAKDYFSHTPLHLAARNGHLKIVEVLLKAGADVNAKDFAGKTPLHLAANDGHLEIVEVLLKAGADVNAQDIFGKTPADIAADAGHEDIAEVLQKAA
modifications: His-tag; Designed ankyrin repeat domain
Regarding B3, the “degradation upon prolonged incubation” value in data set [2] is reported as “degrade”.

B4: Protein #15-His: SEQ ID NO: 15 with a His-tag; designed ankyrin repeat domain with binding specificity for serum albumin (WO2012/069654) (protein)
chain: GSDLGKKLLEAARAGQDDEVRILMANGADVNAKDYFSHTPLHLAARNGHLKIVEVLLKAGADVNAKDFAGKTPLHLAANDGHLEIVEVLLKHGADVNAQDIFGKTPADIAADAGHEDIAEVLQKAA
modifications: His-tag; Designed ankyrin repeat domain
B4: the “stability upon storage at −80° C.” value in data set [2] (10 mg/ml in PBS, 1 month at −80° C., SDS 15% PAGE) is given as “equivalent stability”. In data set [2], the “degradation upon prolonged incubation” value was “degrade”.

B5: Protein #27-His: SEQ ID NO: 27 with a His-tag (SEQ ID NO: 1) fused to its N terminus (protein)
chain: MRGSHHHHHHGSDLGKKLLEAARAGQDDEVRILMANGADVNAKDYFSHTPLHLAARNGHLKIVEVLLKAGADVNAKDFAGKTPLHLAANDGHLEIVEVLLKHGADVNAQDIFGKTPADIAADAGHEDIAEVLQKAAGSPTPTPTTPTPTPTTPTPTPTGSDLGAKLLSDLGVKLLWAAARGQDDEVRILLAAGADVNAKDFQGITPLHIAAQSGHLEIVEVLLKAGADVNAKDVTGDTPLHLAAQHGHLVIVEVLLKAGADVNAQDERGWTPADLAADWGHEDIAEVLQKAAGSPTPTPTTPTPTPTTPTPTPTGSDLGKKLLEAARAGQDDEVRILMANGADVNAKDEYGLTPLYLATAHGHLEIVEVLLKNGADVNAVDAIGFTPLHLAAFIGHLEIAEVLLKHGADVNAQDKFGKTAFDISIGNGNEDLAEILQKAAGSPTPTPTTPTPTPTTPTPTPTGSDLGKKLLEAARAGQDDEVRILMANGADVNAKDYFSHTPLHLAARNGHLKIVEVLLKAGADVNAKDFAGKTPLHLAANDGHLEIVEVLLKHGADVNAQDIFGKTPADIAADAGHEDIAEVLQKAA
modifications: His-tag; Protein comprising four designed ankyrin repeat domains
For B5, in data set [1], the “injected dose remaining 48 hours after intravenous injection” value is recorded as 7% and the “terminal half-life, comparison” value is listed as “longer terminal half-life than Protein #26-His”.
